Experimental data: PMC11219871, “Epigenetic-based differentiation therapy for Acute Myeloid Leukemia” (Nature Communications, 2024)
Several values for one entry are separate records, joined by “and”; a condition that tells them apart may be missing. Equal entries are not always repeated.

Tests used:
HEL = experiment: Cell proliferation assay: GI50; assay type: cell-based; conditions: replicates 1-3
Experimental: (§1) Cell proliferation was analyzed using the CellTiter 96 Aqueous One Solution Cell Proliferation Assay (Promega, Madison, WI). This is a colorimetric method for determining the number of viable cells in proliferation. For the assay, suspension cells were cultured in triplicate at a density of 1 × 10^6 cells/mL in 96-well plates (100.000 cells/well, 100 µL/well), using only the 60 inner wells to avoid any border effects. After 48 h of treatment with different doses of each compound (0, 0.001, 0.01, 0.1, 0.2, 0.4, 0.6, 0.8, 1, 2, 3, 4, 5 and 10 µM), the plates were centrifuged at 800 g for 10 min followed by removal of the medium. Then, the cells were incubated with 100 μL/well of medium and 20 μL/well of CellTiter 96 Aqueous One Solution reagent for 1–3 h. The absorbance was recorded at 490 and 650 nm as reference wavelengths using 96-well plate readers until the absorbance of the control cells without treatment was approximately 0.8 AU. The background absorbance was measured in wells with only cell line medium and solution reagent. First, the average of the absorbance from the control wells was subtracted from all other absorbance values. Data were calculated as the percentage of total absorbance of treated cells/absorbance of non-treated cells. The GI50 values of the different compounds were determined using non-linear regression plots made with GraphPad Prism v5 software.

OCI-AML2 = experiment: Cell proliferation assay: GI50; assay type: cell-based
Experimental: as §1

THP-1 = experiment: Cell proliferation assay: GI50; assay type: cell-based
Experimental: as §1

MONO-MAC-6 = experiment: Cell proliferation assay: GI50; assay type: cell-based
Experimental: as §1

TF-1 = experiment: Cell proliferation assay: GI50; assay type: cell-based
Experimental: as §1

UT-7 = experiment: Cell proliferation assay: GI50; assay type: cell-based
Experimental: as §1

OCI-AML3 = experiment: Cell proliferation assay: GI50; assay type: cell-based
Experimental: as §1

NB-4 = experiment: Cell proliferation assay: GI50; assay type: cell-based
Experimental: as §1

M-07e = experiment: Cell proliferation assay: GI50; assay type: cell-based; conditions: replicates 1-3
Experimental: as §1

GF-D8 = experiment: Cell proliferation assay: GI50; assay type: cell-based
Experimental: as §1

KASUMI-1 = experiment: Cell proliferation assay: GI50; assay type: cell-based
Experimental: as §1

MV4-11 = experiment: Differentiation-apoptosis assay, CD11b / annexin-V / Sytox Green / myeloid markers flow cytometry; assay type: cell-based, human; parameters: Cell viability (%): concentration or dose not given beside the values; CD11b levels: unit not given here
Outline: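 Differentiation and apoptosis were read by flow cytometry after 15 min dark staining at room temperature with APC-CD11b plus FITC annexin-V, 1 × 10^6 cells/mL in binding buffer. Myeloid markers CD13, HLA-DR and CD14 were stained in separate runs for 30 min, followed by lysis and washing.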

HL-60 = experiment: as above; assay type: cell-based, human; parameters: Cell viability (%): concentration or dose not given beside the values; CD11b levels: unit not given here
Outline: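 HL-60 cells were stained for the myeloid differentiation marker CD11b, with annexin-V and Sytox Green marking apoptosis and cell death. Cells were washed in PBS and resuspended at 1 × 10^6 cells/mL in binding buffer; marker staining of 1 million cells was for 30 min at room temperature in the dark, followed by red-cell lysis. Readout was flow cytometry.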

[1] = MV4-11, 48 h treatment, replicates 1-3 (Suppl. Fig. 5A)
[2] = MV4-11, daily treatment, time 0 days
[3] = MV4-11, daily treatment, time 2 days
[4] = MV4-11, daily treatment, time 4 days
[5] = MV4-11, daily treatment, time 6 days
[6] = HL-60, 48 h treatment, replicates 1-3 (Suppl. Fig. 5A)
[7] = HL-60, daily treatment, time 0 days, replicates 1-3 (Figure 2B)
[8] = HL-60, daily treatment, time 2 days, replicates 1-3 (Figure 2B)
[9] = HL-60, daily treatment, time 4 days, replicates 1-3 (Figure 2B)
[10] = HL-60, daily treatment, time 6 days, replicates 1-3 (Figure 2B)
[11] = HL-60, daily treatment, time 8 days, replicates 1-3 (Figure 2B)

Structure (SMILES): COc1cc2nc(-c3cc(C)oc3C)cc(NCC3CCN(c4ncc(C(=O)NO)cn4)CC3)c2cc1OC [CM-1758, 2-[4-[[[2-(2,5-dimethyl-3-furyl)-6,7-dimethoxy-4-quinolyl]amino]methyl] -1-piperidyl]pyrimidine-5-carbohydroxamic acid]
- GI50 (HEL; Homo sapiens): 1880 nM
- GI50 (HEL): 1320 nM and 1360 nM
- GI50 (OCI-AML2; Homo sapiens, OCI-AML2, 48 h): 774 nM
- GI50 (OCI-AML2; Homo sapiens, OCI-AML2, OCI-AML2, replicates 1-3): 954 nM
- GI50 (OCI-AML2; OCI-AML2, replicates 1-3): 712 nM and 655 nM
- GI50 (THP-1; Homo sapiens, THP-1, 48 h): > 10 µM
- GI50 (THP-1; Homo sapiens, THP-1, replicates 1-3): > 10 µM
- GI50 (THP-1; THP-1, replicates 1-3): > 10 µM
- GI50 (MONO-MAC-6; Homo sapiens, MONO-MAC-6, 48 h): 617 nM
- GI50 (MONO-MAC-6; Homo sapiens, MONO-MAC-6, MONO-MAC-6, replicates 1-3): 785 nM
- GI50 (MONO-MAC-6; MONO-MAC-6, replicates 1-3): 600 nM and 466 nM
- GI50 (TF-1; Homo sapiens, TF-1, TF-1, replicates 1-3): 2960 nM
- GI50 (TF-1; TF-1, replicates 1-3): 2580 nM and 2690 nM
- GI50 (UT-7; Homo sapiens, UT7, UT-7, replicates 1-3): 3.69 µM
- GI50 (UT-7; UT-7, replicates 1-3): 3.94 µM and 3.67 µM
- GI50 (OCI-AML3; Homo sapiens, OCI-AML-3, OCI-AML3, 48 h): > 10 µM
- GI50 (OCI-AML3; Homo sapiens, OCI-AML-3, OCI-AML3, replicates 1-3): > 10 µM
- GI50 (OCI-AML3; OCI-AML3, replicates 1-3): > 10 µM
- GI50 (NB-4; Homo sapiens, NB-4, 48 h): 857 nM
- GI50 (NB-4; Homo sapiens, NB-4, NB-4, replicates 1-3): 987 nM
- GI50 (NB-4; NB-4, replicates 1-3): 714 nM and 870 nM
- GI50 (M-07e): 1320 nM and 1990 nM and 1190 nM
- GI50 (GF-D8; 48 h, GF-D8, 48 h): > 10 µM
- GI50 (GF-D8; GF-D8, replicates 1-3): > 10 µM
- GI50 (KASUMI-1; Homo sapiens, Kasumi 1, 48 h, KASUMI-1, 48 h): 578 nM
- GI50 (KASUMI-1; Homo sapiens, Kasumi 1, KASUMI-1, replicates 1-3): 721 nM
- GI50 (KASUMI-1; KASUMI-1, replicates 1-3): 635 nM and 379 nM
- CD11b (%) (MV4-11; MV4-11, 48 h): 57.9%
- CD13 (%) (MV4-11; MV4-11, 48 h): 98.1%
- CD14 (%) (MV4-11; MV4-11, 48 h): 56.2%
- HLA-DR (%) (MV4-11; MV4-11, 48 h): 38.4%
- CD11b (%) (MV4-11; [1]): 47.1% and 53.2% and 55.4%
- Cell viability (%) (MV4-11; [1]): 80.4% and 85.9% and 86.75%
- differentiation level (CD11b) (MV4-11; MV4-11, after 6–8 days of treatment): ~90%
- CD11b levels (MV4-11; MV4-11, daily treatment for 48 h, replicates 1-3 (Suppl. Fig. 9A)): 37.8 and 40.7 and 46.2
- Annexin-V (%) (MV4-11; [2]): 5.32% and 4.14% and 5.2%
- CD11b (%) (MV4-11; [2]): 11.1% and 6.62% and 5.25%
- Annexin-V (%) (MV4-11; [3]): 7.65% and 8.98% and 10.24%
- CD11b (%) (MV4-11; [3]): 28.2% and 20.4% and 30.4%
- Annexin-V (%) (MV4-11; [4]): 26.3% and 27.9% and 28.6%
- CD11b (%) (MV4-11; [4]): 44.3% and 46.2% and 46.6%
- Annexin-V (%) (MV4-11; [5]): 19.6% and 21.2% and 20.7%
- CD11b (%) (MV4-11; [5]): 76% and 75.1% and 74.8%
- CD11b (%) (MV4-11; MV4-11 cell line, replicates 1-3 (Figure 2A)): 38.46% and 40.4% and 45.7%
- percentage of CD11b (HL-60; HL-60, 270 nM CM-444 or 300 nM CM-1758 daily for 4 days, before injection): > 90%
- CD11b (%) (HL-60; HL-60, 48 h): 71.2%
- CD13 (%) (HL-60; HL-60, 48 h): 100%
- CD14 (%) (HL-60; HL-60, 48 h): 18.9%
- HLA-DR (%) (HL-60; HL-60, 48 h): 12.2%
- CD11b (%) (HL-60; [6]): 65.4% and 71.1% and 68.4%
- Cell viability (%) (HL-60; [6]): 82.8% and 73.6% and 69.5%
- differentiation level (CD11b) (HL-60; HL-60, after 6–8 days of treatment): ~90%
- Annexin V (%) Replicate 1 (HL-60; HL-60, daily 25% GI50, 48 h): 0.26%
- Annexin V (%) Replicate 2 (HL-60; HL-60, daily 25% GI50, 48 h): 0.17%
- Annexin V (%) Replicate 3 (HL-60; HL-60, daily 25% GI50, 48 h): 0.14%
- CD11b (%) Replicate 1 (HL-60; HL-60, daily 25% GI50, 48 h): 55.36%
- CD11b (%) Replicate 2 (HL-60; HL-60, daily 25% GI50, 48 h): 68.41%
- CD11b (%) Replicate 3 (HL-60; HL-60, daily 25% GI50, 48 h): 67.15%
- Annexin-V (%) (HL-60; [7]): 0% and 4.96% and 3.21%
- CD11b (%) (HL-60; [7]): 13.33% and 12.5% and 10.8%
- Annexin-V (%) (HL-60; [8]): 5.66% and 3.51% and 4.98%
- CD11b (%) (HL-60; [8]): 74.44% and 64.2% and 68.7%
- Annexin-V (%) (HL-60; [9]): 0% and 4.07% and 5.87%
- CD11b (%) (HL-60; [9]): 86.57% and 79.2% and 77.3%
- Annexin-V (%) (HL-60; [10]): 5.76% and 2.68% and 3.98%
- CD11b (%) (HL-60; [10]): 94.42% and 89.2% and 90.5%
- Annexin-V (%) (HL-60; [11]): 0% and 5.21% and 6.98%
- CD11b (%) (HL-60; [11]): 96% and 92.9% and 94.7%
- CD11b (%) (HL-60; HL-60 cell line, replicates 1-3 (Figure 2A)): 81.73% and 89.6% and 92.1%
- CD11b levels (HL-60; HL-60 treated daily for 48 h, replicates (Fig 6D)): 61.2 and 70.4 and 75.9
